Laboratory results: US20040071799A1, “Herbal compositions and methods for effecting weight loss in humans” (priority 2001, published 2004)

Assays:
[1] = Female Wistar rats fed high fat diet for 56 days (Example 4); type: in vivo
Description: Sixty female Wistar rats, averaging 220 g in weight, were randomly allotted to five experimental groups and fed the high fat diet described in Table I below for 56 days. The rats were housed individually in wire mesh cages equipped with an automated watering system. The room housing the rats was maintained at a temperature of 22° to 24° C., with a light-dark cycle of 12 hours each. Following the one-week quarantine period the rats were adapted to handling, and to oral insertion of the gastric intubation device over the next ten days. Water was intubated once a day during this period. After ten days, the rats no longer indicated marked distress during the procedure.
After adaption to the intubation procedure, the diet of Table I was initiated. This diet is comprised of 56% of energy from fat. All treatment and placebo intubations occurred between 1600 and 1800 hours. Individual food intake was measured daily throughout the study. Body weight was measured daily through day 23 and twice weekly thereafter. The experimental period lasted 56 days. Lin, X., M. R. Chavex, R. C. Bruch, et al., J. Nutrition 128:1606-13, 1998.
Referring to Table II below, the five groups consisted of: the control group (n=15), which were fed ad libitum, and were intubated daily with 1 mL of water. The “low dose DRD” (n=10) and the “high dose DRD” (n=15) groups, which were fed ad libitum and administered daily 1 mL of the aqueous extract obtained from 0.75 grams and 1.50 grams of the initial dried herb mixture by intubation, respectively. The “fenfluramine group” (n=10), which was fed ad libitum and received 2 mg/kg fenfluramine in 1 mL of water daily, by intubation, and, finally, a fifth group (n=10) was pair-fed to the high dose DRD group and was administered 1 mL of water daily, by intubation.
Food consumption for all rats was determined daily, and body weights were obtained daily for the first 23 days, and then twice a week for the next 33 days. After 56 days all the rats except five from the control group and five from the high dose DRD group were sacrificed. Trunk blood was collected, and the eviscerated carcasses were homogenized, dried and assayed for body composition. White and brown fat depots, liver, kidney, spleen, heart, and gastrocnemius muscle were weighed. During the 56 days of the experiment, all rats were observed daily by the animal technician, and weekly by a veterinarian, and notations were made regarding physical activity/lethargy, fur condition, skin condition, eye condition, stools, and “others.” There were no noticeable differences among any of the groups with regard to physical activity, skin condition, and eye condition. […] This behavior lasted about one week and then stopped.
The serum was analyzed for insulin, corticosterone and leptin, using standard commercially available immunoassays for the rat. Alkaline phosphatase, alanine aminotransferase, amylase, aspartate aminotransferase, chloride, cholesterol, creatinine phosphokinase, γ-glutamyl transpeptidase, glucose, hemoglobin, hematocrit, mean cell volume, platelets, potassium, sodium, triglycerides, and white blood cells were assayed by standard clinical laboratory methods. All data were pooled by treatment and subjected to a One-Way Analysis of Variance (ANOVA) followed by a Scheffe Comparison of Means analysis (for unbalanced groups). Statistix® for Windows, 1998. Analytical Software, Tallahassee, Fla. 32317.
The rats that were not sacrificed and had previously received the high dose DRD had their treatment withdrawn during a 14-day “recovery period.” On the 15th day of this recovery period these rats, plus five control rats, were sacrificed and all the above analyses were conducted.

[2] = Young growing male Wistar rats fed obesity-inducing diet, 90 days (Example 3); type: in vivo; settings: fenfluramine group
Description: Young growing male Wistar rats, of about 220 grams average initial weight, were fed the obesity-inducing diet. Concomitantly, the rats were administered, 1.0 gram DRD, 1.5 grams DRD, or 5.0 grams DRD, by daily intubation, for 90 days. The treatment groups gained 21%, 24% and 47% less weight, respectively, than did the placebo controls. The rats administered fenfluramine gained 22% less weight than did the controls.
Thus, the prevention of weight gain appears to be due to a reduction in fat storage, and that the skeletal muscle had been preserved.

[3] = in vivo; cited from earlier work
[4] = d-fenfluramine 2 mg/kg, 56 days

SMILES | Average Final Weight, Gms ± SD. [1, 4] | Average Gain, Gms ± SD [1, 4] | calories required to cause a one-gram weight gain ([1]; fenfluramine) | food efficiency: gain in weight per calorie available for gain above maintenance ([1]; fenfluramine) | less weight gained than controls ([1]; fenfluramine 2 mg/kg daily, 56th day) | total food consumed ([1]; fenfluramine, 56 day period) | food efficiency lower than controls (grams gain per gram of food ingested) ([1]; fenfluramine, 56 days) | weight gained as fat (body composition) ([1]; fenfluramine, 56 days) | serum leptin ([1]; fenfluramine, end of 56-day treatment) | less weight gained than controls [2] | decrease of the amount of fat absorbed from the diet [3]
CCNC(C)Cc1cccc(C(F)(F)F)c1 (centres unmarked) [fenfluramine] | 325.7 ± 33.7 Gms | 106.9 ± 22.0 Gms | 18.16 calories | 0.0545 grams per calorie | 12.3% | consumed less total food over the 56 day period than the controls | 7.8% | gained significantly less fat than did the controls | less leptin than controls | 22% | –
CCCCCCCCCCC[C@@H](C[C@@H]1OC(=O)[C@H]1CCCCCC)OC(=O)[C@H](CC(C)C)NC=O [Orlistat] | – | – | – | – | – | – | – | – | – | – | diet by 30%.
